Literature values in PMC2791716 (Biotechnology and bioengineering, 2009).
Like-named read-outs stand apart in the source and are kept apart here.

Key:
[1] = no reference given
[2] = system: cell adhesion to laminin-1; conditions: ref Nakahara et al. 1996

In the case of `COc1cccc2c1C(=O)c1c(O)c3c(c(O)c1C2=O)C[C@@](O)(C(=O)CO)C[C@@H]3O[C@H]1C[C@H](N)[C@H](O)[C@H](C)O1` [doxorubicin], the “minimum effective therapeutic concentration” value ([1]; systemic delivery) is listed as 50 mg/kg and the “minimum effective therapeutic concentration” value ([1]; systemic vascular concentration, converted from 50mg/kg) is listed as “approximately 90 μM”.

For TWYKIAFQRNRK, the “inhibition of cell adhesion to laminin-1” value [2] is listed as 90%.
